Patent US4980349A, “Sulphonamides derived from diarylmethanes, the processes for preparing them and pharmaceutical compositions containing them” (SANOFI, priority 1986, dated 1990)
Read-outs that look alike come from different tables or passages of the source.

Assays:
[1] = test system: rat hind foot kaolin-induced oedema; assay: Kaolin-induced arthritis test, first experiment (decrease in inflammation, foot volume); assay type: in vivo; details: 1 h before kaolin, Table IX, read-out: percentage decrease in the inflammation; for change in vivo at 25 mg/kg: 25 mg/kg oral; for change in vivo at 50 mg/kg: 50 mg/kg oral; for change in vivo at 100 mg/kg: 100 mg/kg oral
Description: The […] of 0.05 ml of a sterile 10% strength suspension of kaolin into the metatarsal flexor sheath of the hind foot of a rat initially induces an oedematous reaction. An inflammatory arthritis then forms.
The early oedematous reaction appears from the first hour, and reaches its maximum between the fourth hour and the sixth hour. This is the manifestation of interest. The assessment of the volume of the foot enables the action of substances on the oedematous reaction to be studied. The measurements are carried out using a Giono and Chevilard plethysmometer.
The test products are administered orally (stomach tube) one hour before the injection of the kaolin.
The results are expressed as a percentage decrease in the inflammation in the treated animals compared with a control series of animals.
The batches are of 10 animals per dose and 10 control animals.
The figures shown represent the mean of 10 animals.

[2] = test system: rat hind foot carragheenin-induced oedema; assay: Carragheenin-induced oedema test; assay type: in vivo; details: 3 h, first experiment, Table X, read-out: percentage inhibition of the inflammation; for change in vivo at 25 mg/kg: 25 mg/kg oral; for change in vivo at 50 mg/kg: 50 mg/kg oral; for change in vivo at 100 mg/kg: 100 mg/kg oral
Description: In this test, 10 rats are used per test compound of the invention. Control batches of 10 rats also receive either the comparative compound (ketoprofen) or exclusively an NaCl solution.
The compounds of the invention are administered orally (stomach tube) one hour before the injection of carragheenin.
The carragheenin is suspended at a concentration of 1% in a 0.9% isotonic sodium chloride solution. The volume injected into the rat's foot is 0.20 ml.
The volume of the foot is measured before the injection and 3 hours later. The antagonistic effect of the products towards carragheenin is reflected in the inhibition of the volume of the oedema compared with control rats. The latter receive only isotonic NaCl solution under identical conditions.

[3] = test system: pain threshold of brewer's yeast inflamed rat hind foot; assay: Randall and Sellitto's test (analgesic activity); assay type: in vivo; details: first experiment, Table XII, read-out: percentage increase in the mean pain threshold; for change in vivo at 25 mg/kg: 25 mg/kg oral; for change in vivo at 50 mg/kg: 50 mg/kg oral; for change in vivo at 100 mg/kg: 100 mg/kg oral
Description: Inflammation increases the sensitivity to pain, in particular to pressure, and analgesics raise the threshold of the sensitivity.
The inflammation is obtained by injecting 0.1 ml of a 20% strength aqueous suspension of brewer's yeast under the plantar aponeurosis of one of the hind feet. […] The pain threshold is assessed in terms of the force necessary and sufficient to initiate a characteristic reaction of withdrawing the foot.
The sensitivity to pain of the inflamed foot reaches a plateau 4 hours after the injection of the brewer's yeast, and then remains stable until the 6th hour. The pain threshold of the inflamed foot in control rats weighing 140 g is reached for pressures of 50 to 60 g, whereas it is around 160 g for the intact foot.
The action of the substance administered orally to series of 10 rats is expressed in terms of the percentage increase in the mean pain threshold, compared with that measured in the rats of a control series of 10 animals which have not received a compound of the invention.
The test products are administered orally (stomach tube) one hour before the injection of brewer's yeast.
The comparative compound used is ketoprofen.

[4] = test system: biosynthesis of leukotrienes B4 (LTB4), human polymorphonuclear leukocytes; assay: Biosynthesis of LTB4, isomers and oxidized metabolites in human polymorphonuclear leukocytes; assay type: cell-based; details: Leukocyte
Description: Polymorphonuclear leukocytes are isolated from human blood and used during the 6 hours following the withdrawal. The viability of the cells is checked by trypan blue exclusion.
5×10^6 cells are incubated for 10 minutes at 37° C. in the presence of the test product dissolved in DMSO, and are stimulated with ionophore A 23187 (Galbiochem, 10 μM) in PBS buffer at pH 7.4, Ca^2+ and Mg^2+ =1 μM.
100 ng of prostaglandin B2 (PGB2), dissolved in methanol, are added at the end of the reaction to act as an internal standard.
On centrifugation, the culture supernatant is withdrawn. The latter is retrieved under argon and stored at -80° C. until analysed by HPLC.
This analysis is carried out by injecting 250 μl onto a 5 μm ODS ultrasphere column (Beckmann), with a gradient of acetonitrile (20-80%) in water, at pH 7.4.
The amounts of the different products which absorb at 269 nm, i.e. leukotrienes B4 (LTB4), isomers of LTB4 and oxidized metabolites of LTB4, are estimated by comparison with the internal standard.
The test product is used at a concentration of 40 μM.
They are expressed either as a percentage inhibition, or as a percentage increase in the production of LTB4, isomers of LTB4 and oxidized metabolites of LTB4 (designated by +).
The experimental model is the same as that described in Section 2.1. Other products are tested by comparison with the compound of the invention no. 1574, used as a control.

[5] = first experiment, read-out: Isomers of LTB4: percentage inhibition (+ : percentage increase in the production)
[6] = first experiment, read-out: LTB4: percentage inhibition (+ : percentage increase in the production)
[7] = first experiment, read-out: Oxidized metabolites of LTB4: percentage inhibition (+ : percentage increase in the production)
[8] = second experiment, read-out: Percentage inhibition of LTB4 formation

Structure (SMILES)	change in vivo at 25 mg/kg [1] [%]	change in vivo at 50 mg/kg [1] [%]	change in vivo at 100 mg/kg [1] [%]	change in vivo at 25 mg/kg [2] [%]	change in vivo at 50 mg/kg [2] [%]	change in vivo at 100 mg/kg [2] [%]	change in vivo at 25 mg/kg [3] [%]	change in vivo at 50 mg/kg [3] [%]	change in vivo at 100 mg/kg [3] [%]	inhibition at 40 µM [4, 5] [%]	inhibition at 40 µM [4, 6] [%]	inhibition at 40 µM [4, 7] [%]	inhibition at 40 µM [4, 8] [%]
O=C(O)CCCCCCCCCCNS(=O)(=O)c1ccccc1C(=O)c1ccccc1 [Compound 1682]	-35	-35	-40	-33	-42	-45	12	15	20	30	30	40	
O=C(O)CCCCCCCCCCCNS(=O)(=O)c1ccccc1C(=O)c1ccccc1 [Compound 1683]	-25	-30	-40	-25	-30	-35	15	20	30	15	15	30	
O=C(O)CCCCCCCCCCNS(=O)(=O)c1cccc(C(=O)c2ccccc2)c1 [Compound 1684]	-28	-42	-45	-30	-45	-55	35	45	50	35	20	60	
O=C(O)CCCCCCCCCCCNS(=O)(=O)c1cccc(C(=O)c2ccccc2)c1 [Compound 1685]										70	50	70	
O=C(O)CCCCCCCCCCNS(=O)(=O)c1ccc(C(=O)c2ccccc2)cc1 [Compound 1686]	-50	-50	-50	-50	-50	-55	35	50	50	5	0	25	
O=C(O)CCCCCCCCCCCNS(=O)(=O)c1cccc(C(=O)c2cc(S(=O)(=O)NCCCCCCCCCCCC(=O)O)ccc2Cl)c1 [Compound 1689]										-30	-30	20	
O=C(O)CCCCCCCCCCNS(=O)(=O)c1ccc(Cl)c(C(=O)c2ccccc2)c1 [Compound 1737, 11-(3-benzoyl-4-chlorobenzenesulphonamido)undecanoic acid]													95
O=C(O)CCCNS(=O)(=O)c1ccc(C(=O)c2cccs2)cc1 [Compound 1738, 4-[4-(2-thenoyl)benzenesulphonamido]butyric acid]													20
O=C(O)CCCCCCCNS(=O)(=O)c1ccc(Cl)cc1C(=O)c1ccccc1Cl [Compound 1743]													20
